Results as given in patent publication US9738673B1, “Ferrocene derivative, preparation method and use thereof” (XIAMEN INSTITUTE OF RARE EARTH MATERIALS, priority 2016, dated 2017).

Assays:
[1] = system: human lung cancer cell line A549; assay: In vitro anticancer activity MTT assay, A549; format: cell-based; conditions: 48 h, A549 cells
Description: (§1) Using a wavelength-tunable microplate reader absorbance value (A595) was measured at 595 nm. Inhibitory ratio was calculated with the following formula: […]
(§2) wherein, IC50 values were calculated using the GraphPad Prism 5 software.

[2] = system: colorectal cancer cell line HCT-116; assay: In vitro anticancer activity MTT assay, HCT116; format: cell-based, human; conditions: 48 h, HCT116 cells
Description: as §1, §2

[3] = system: breast cancer cell line MCF-7; assay: In vitro anticancer activity MTT assay, MCF-7; format: cell-based, human; conditions: 48 h, MCF-7 cells
Description: as §1, §2

Row | IC50 [1] [µM] | IC50 [2] [µM] | IC50 [3] [µM] | SMILES
1 | 168 | 149 | 159 | O=C(OCc1cc(-c2ccccc2F)no1)[c-]1cccc1.O=C(OCc1cc(-c2ccccc2F)no1)[c-]1cccc1.[Fe+2] [YJP-12]
2 |  |  | 133 | O=C(OCc1cc(-c2ccc(C(F)(F)F)cc2)no1)[c-]1cccc1.O=C(OCc1cc(-c2ccc(C(F)(F)F)cc2)no1)[c-]1cccc1.[Fe+2] [YJP-9]
3 | 251 | 63.9 | 156 | O=C(OCc1cc(-c2ccc(Br)cc2)no1)[c-]1cccc1.O=C(OCc1cc(-c2ccc(Br)cc2)no1)[c-]1cccc1.[Fe+2] [YJP-16]
4 |  |  | 182 | COc1ccc(-c2cc(COC(=O)[c-]3cccc3)on2)cc1.COc1ccc(-c2cc(COC(=O)[c-]3cccc3)on2)cc1.[Fe+2] [YJP-6]
5 | 450 | 228 | 172 | O=C(OCc1cc(-c2ccccc2Cl)no1)[c-]1cccc1.O=C(OCc1cc(-c2ccccc2Cl)no1)[c-]1cccc1.[Fe+2] [YJP-14]
6 | 868 |  | 157 | COc1ccccc1-c1cc(COC(=O)[c-]2cccc2)on1.COc1ccccc1-c1cc(COC(=O)[c-]2cccc2)on1.[Fe+2] [YJP-7]
7 | 220 | 2180 | 150 | CC(C)(C)c1ccc(-c2cc(COC(=O)[c-]3cccc3)on2)cc1.CC(C)(C)c1ccc(-c2cc(COC(=O)[c-]3cccc3)on2)cc1.[Fe+2] [YJP-4]
8 | 530 | 157 | 178 | O=C(OCc1cc(-c2ccc([N+](=O)[O-])cc2)no1)[c-]1cccc1.O=C(OCc1cc(-c2ccc([N+](=O)[O-])cc2)no1)[c-]1cccc1.[Fe+2] [YJP-19]
9 | 222 | 234 | 190 | O=C(OCc1cc(-c2ccc(Cl)cc2Cl)no1)[c-]1cccc1.O=C(OCc1cc(-c2ccc(Cl)cc2Cl)no1)[c-]1cccc1.[Fe+2] [YJP-15]
10 | 690 | 486 | 169 | O=C(OCc1cc(-c2ccc(Cl)cc2)no1)[c-]1cccc1.O=C(OCc1cc(-c2ccc(Cl)cc2)no1)[c-]1cccc1.[Fe+2] [YJP-13]
11 | 2860 |  | 138 | O=C(OCc1cc(-c2ccc(F)cc2)no1)[c-]1cccc1.O=C(OCc1cc(-c2ccc(F)cc2)no1)[c-]1cccc1.[Fe+2] [YJP-11]
12 | 189 |  | 142 | Cc1cc(C)c(-c2cc(COC(=O)[c-]3cccc3)on2)c(C)c1.Cc1cc(C)c(-c2cc(COC(=O)[c-]3cccc3)on2)c(C)c1.[Fe+2] [YJP-5]
13 | 142 | 236 | 138 | COc1cccc(-c2cc(COC(=O)[c-]3cccc3)on2)c1.COc1cccc(-c2cc(COC(=O)[c-]3cccc3)on2)c1.[Fe+2] [YJP-8]
14 |  |  | 86.8 | CCc1ccc(-c2cc(COC(=O)[c-]3cccc3)on2)cc1.CCc1ccc(-c2cc(COC(=O)[c-]3cccc3)on2)cc1.[Fe+2] [YJP-3]
15 | 252 |  | 990 | O=C(OCc1cc(-c2ccccc2)no1)[c-]1cccc1.O=C(OCc1cc(-c2ccccc2)no1)[c-]1cccc1.[Fe+2] [YJP-1]
16 | 198 | 220 | 136 | Cc1ccc(-c2cc(COC(=O)[c-]3cccc3)on2)cc1.Cc1ccc(-c2cc(COC(=O)[c-]3cccc3)on2)cc1.[Fe+2] [YJP-2]
